Measurements from the NIST ThermoML archive (doi:10.1021/je300076y).
± gives the expanded uncertainty stated by the source.

Assays:
[1] = Liquid; for mass density: 293.15 K, 101.33 kPa, Vibrating tube method
[2] = refractive index (Na D-line) (dimensionless); settings: 101.33 kPa, Liquid, Standard Abbe refractometry

SMILES	mass density [1]	vapor or sublimation pressure ([1]; 439.35 K)	refractive index ([2]; 293.15 K)	vapor or sublimation pressure ([1]; 353.61 K)	vapor or sublimation pressure ([1]; 353.71 K)	vapor or sublimation pressure ([1]; 472.25 K)	refractive index ([2]; 293.1 K)
CCO[Si](OCC)(OCC)OCC [tetraethoxysilane]	935 ± 0.3 kg/m3	95.5 ± 2.5 kPa	1.3835 ± 0.0007				
CC(C)(C)O [2-methylpropan-2-ol]	788.4 ± 0.3 kg/m3		1.3877 ± 0.0007	95.5 ± 2.5 kPa	95.5 ± 2.5 kPa		
CC(=O)c1ccccc1 [acetophenone]	1024.5 ± 0.3 kg/m3					95.5 ± 2.5 kPa	1.537 ± 0.0008
